Numbers after ± are expanded uncertainties.
Conditions: 101.33 kPa, Liquid; for viscosity: Concentric cylinders viscometry; for thermal conductivity: Hot wire method

OCCO [1,2-ethanediol]
Conditions	thermal conductivity [W/m/K]	viscosity [mPa·s]
283.15 K	0.243 ± 0.015	35.44 ± 3.6
288.15 K	–	28 ± 2.8
293.15 K	–	21.89 ± 2.2
298.15 K	–	17.25 ± 1.7
303.15 K	0.246 ± 0.015	13.86 ± 1.4
308.15 K	–	11.64 ± 1.2
313.15 K	–	9.62 ± 0.97
323.15 K	0.249 ± 0.015	7.21 ± 0.72
343.15 K	0.259 ± 0.016	–

From the NIST ThermoML archive (doi:10.1016/j.jct.2013.07.002)
